In patent publication US4260613A, “Pyridoxine derivatives” (Crinos Industria Farmacobiologica S.p.A., priority 1978, dated 1981):

Legend:
Format in all cases: in vivo
rat = experiment: Ulcer-causing activity, UD50 per os in the rat (gastric lesions 7 h after treatment); settings: in words, vs 2-(4-isobutylphenyl)-propionic acid
Experimental: The ulcer-causing activity has been determined by administering the substances per os to rats which have fasted 18 hours and evaluating the presence of gastric lesions 7 hours after the treatment. The UD50 has been determined according to Litchfield and Wilcoxon (J. Pharmacol. Exp. Ther. 96, 99, 1949).

[1] = tested on: caraganin-edema, normal rat; experiment: Caraganin-edema test according to Winter et al in the normal rat (anti-inflammatory activity); settings: 25 mg/kg per os, 3hrs, vs controls
Experimental: Caraganin-edema test according to Winter et al (Proc. Soc. Exp. Biol. Med., 111, 544, 1962) in the normal rat. The anti-inflammatory activity is expressed as a percentage of inhibition, after 3 and 6 hours, with respect to the controls.

mouse = experiment: Acute toxicity, LD50 per os in the mouse (sole dose, 18 h fasting); settings: in words, vs 2-(4-isobutylphenyl)-propionic acid
Experimental: The acute toxicity has been determined by administering the substances per os in a sole dose to the mouse after 18 hours of fasting. The LD50 has been determined according to Litchfield and Wilcoxon (J. Pharmacol. Exp. Ther. 96, 99, 1949).

Row | SMILES | ulcer-causing activity with respect to the free acid (rat) | ANTI-INFLAMMATORY Inhibition % [1] | toxicity with respect to the free acid (mouse)
1 | Cc1ncc(COC(=O)C(C)c2ccc(CC(C)C)cc2)c(CO)c1O (centres unmarked) [2-(4-isobutyl-phenyl)-propionic pyridoxine 5-ester] | lower toxicity and ulcer-causing activity | 43.6% | lower toxicity
2 | Cc1ncc(COC(=O)C(C)c2ccc(CC(C)C)cc2)c2c1OC(C)(C)OC2 (centres unmarked) [2-(4-isobutylphenyl)-propionic isopropylidene-pyridoxine 5-ester] | lower toxicity and ulcer-causing activity |  | lower toxicity
